Assay results from ChEMBL document CHEMBL3627608, “Crystal structures of human RIP2 kinase catalytic domain complexed with ATP-competitive inhibitors: Foundations for understanding inhibitor selectivity” (Bioorg Med Chem, 2015).

Columns and labels:
[1] = target: T1, Serine/threonine-protein kinase TAO2 (Homo sapiens) (UniProt Q9UL54); assay: Inhibition of TAOK2 (unknown origin) at 10 uM after 120 mins P33 radiolabeled kinase activity assay
T1 sequence (whole entry): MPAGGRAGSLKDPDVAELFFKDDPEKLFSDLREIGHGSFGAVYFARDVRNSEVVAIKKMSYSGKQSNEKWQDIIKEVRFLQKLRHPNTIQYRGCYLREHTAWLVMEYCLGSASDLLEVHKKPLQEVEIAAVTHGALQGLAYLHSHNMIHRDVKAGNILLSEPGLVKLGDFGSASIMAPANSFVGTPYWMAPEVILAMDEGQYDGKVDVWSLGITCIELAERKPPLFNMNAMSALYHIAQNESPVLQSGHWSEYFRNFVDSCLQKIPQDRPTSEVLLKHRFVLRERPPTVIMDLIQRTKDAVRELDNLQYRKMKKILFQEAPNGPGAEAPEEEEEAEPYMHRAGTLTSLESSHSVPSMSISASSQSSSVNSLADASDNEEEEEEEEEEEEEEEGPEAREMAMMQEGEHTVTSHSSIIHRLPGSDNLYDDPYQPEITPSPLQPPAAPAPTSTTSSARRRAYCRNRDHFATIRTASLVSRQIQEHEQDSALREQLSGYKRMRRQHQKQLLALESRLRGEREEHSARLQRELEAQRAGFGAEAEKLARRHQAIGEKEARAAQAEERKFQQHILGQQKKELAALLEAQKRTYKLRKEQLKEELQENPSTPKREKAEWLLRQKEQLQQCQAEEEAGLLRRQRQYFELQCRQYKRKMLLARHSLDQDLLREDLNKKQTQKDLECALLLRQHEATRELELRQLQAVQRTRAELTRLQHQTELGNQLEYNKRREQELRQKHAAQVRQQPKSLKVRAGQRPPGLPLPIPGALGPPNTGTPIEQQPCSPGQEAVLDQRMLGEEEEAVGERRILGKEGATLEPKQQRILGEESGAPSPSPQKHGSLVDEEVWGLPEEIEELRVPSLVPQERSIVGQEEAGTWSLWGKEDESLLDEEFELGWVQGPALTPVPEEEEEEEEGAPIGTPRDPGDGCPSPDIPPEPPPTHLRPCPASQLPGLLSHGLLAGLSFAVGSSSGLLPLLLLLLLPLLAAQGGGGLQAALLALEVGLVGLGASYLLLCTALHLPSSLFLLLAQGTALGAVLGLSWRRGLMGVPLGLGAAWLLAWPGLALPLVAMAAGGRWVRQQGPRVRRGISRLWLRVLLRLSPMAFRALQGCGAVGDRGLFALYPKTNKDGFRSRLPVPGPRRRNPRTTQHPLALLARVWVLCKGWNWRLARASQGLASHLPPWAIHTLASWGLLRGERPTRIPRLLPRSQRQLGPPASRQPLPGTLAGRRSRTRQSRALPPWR

[2] = target: T2, Mitogen-activated protein kinase kinase kinase 6 (Homo sapiens) (UniProt O95382); assay: Inhibition of MEKK6 (unknown origin) at 10 uM after 120 mins P33 radiolabeled kinase activity assay
T2 sequence (whole entry): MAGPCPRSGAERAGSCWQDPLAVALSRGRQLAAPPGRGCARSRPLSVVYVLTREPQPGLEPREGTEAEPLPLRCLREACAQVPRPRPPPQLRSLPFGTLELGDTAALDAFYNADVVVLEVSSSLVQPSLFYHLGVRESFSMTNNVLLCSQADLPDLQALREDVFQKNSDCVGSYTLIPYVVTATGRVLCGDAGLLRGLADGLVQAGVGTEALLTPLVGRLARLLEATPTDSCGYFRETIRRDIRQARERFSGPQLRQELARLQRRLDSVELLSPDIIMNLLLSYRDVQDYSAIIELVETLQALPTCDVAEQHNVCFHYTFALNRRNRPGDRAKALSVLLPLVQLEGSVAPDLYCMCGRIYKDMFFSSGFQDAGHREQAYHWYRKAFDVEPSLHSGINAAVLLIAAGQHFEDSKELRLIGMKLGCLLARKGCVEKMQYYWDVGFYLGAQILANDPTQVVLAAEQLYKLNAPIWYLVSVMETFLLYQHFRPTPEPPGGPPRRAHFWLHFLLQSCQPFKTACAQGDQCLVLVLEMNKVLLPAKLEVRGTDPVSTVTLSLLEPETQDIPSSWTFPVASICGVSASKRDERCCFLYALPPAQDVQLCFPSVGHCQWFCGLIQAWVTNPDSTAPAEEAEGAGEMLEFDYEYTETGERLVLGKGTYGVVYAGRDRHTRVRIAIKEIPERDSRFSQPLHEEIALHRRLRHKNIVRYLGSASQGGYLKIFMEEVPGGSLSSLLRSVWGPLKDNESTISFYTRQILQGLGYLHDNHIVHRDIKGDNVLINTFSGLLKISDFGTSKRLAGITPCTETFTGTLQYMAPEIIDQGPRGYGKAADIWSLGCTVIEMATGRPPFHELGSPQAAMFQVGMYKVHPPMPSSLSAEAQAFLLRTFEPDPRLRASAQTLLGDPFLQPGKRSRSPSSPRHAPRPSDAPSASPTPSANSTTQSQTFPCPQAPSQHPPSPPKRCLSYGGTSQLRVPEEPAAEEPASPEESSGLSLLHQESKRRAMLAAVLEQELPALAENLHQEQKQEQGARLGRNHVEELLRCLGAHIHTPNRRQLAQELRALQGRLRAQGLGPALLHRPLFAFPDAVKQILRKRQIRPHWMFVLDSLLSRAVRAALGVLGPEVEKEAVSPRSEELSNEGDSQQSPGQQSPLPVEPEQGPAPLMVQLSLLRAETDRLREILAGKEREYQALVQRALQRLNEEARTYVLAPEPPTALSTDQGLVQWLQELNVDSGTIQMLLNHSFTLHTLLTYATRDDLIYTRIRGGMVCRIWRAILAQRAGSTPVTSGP

| inhibition [1] | inhibition [2] | SMILES |
| --- | --- | --- |
| 1.71% | -0.42% | COCCNC(=O)c1ccc2c(c1)nc(-c1cnc(-c3ccc(Cl)cc3)[nH]1)n2CCOC |
| 77.8% | -4.09% | CS(=O)(=O)c1cccc(Nc2nccc(-c3sc(N4CCOCC4)nc3-c3cccc(NS(=O)(=O)c4c(F)cccc4F)c3)n2)c1 |
| 96.7% | 4.35% | CC(C)(C)c1cc(NC(=O)Nc2ccc(Oc3ccncc3)cc2)no1 |
